pIC50: −log10 of the molar value. Counter-ions that a name gives are not always drawn.
Target: PI3Kδ (p110δ/p85α) (Homo sapiens (Human), UniProt O00329)
Test: Example A3: PI3Kδ scintillation proximity assay
Type: biochemical
Details: scintillation proximity assay, 20 μM ATP, 4 nM PI3Kδ; read-out: PI3Kδ SPA IC50
Method: [γ-^33P]ATP (10 mCi/mL) was purchased from Perkin-Elmer (Waltham, Mass.). […] PI3Kδ (p110δ/p85α) was purchased from Millipore (Bedford, Mass.). ATP, MgCl2, DTT, EDTA, MOPS and CHAPS were purchased from Sigma-Aldrich (St. Louis, Mo.). Wheat Germ Agglutinin (WGA) YSi SPA Scintillation Beads was purchased from GE healthcare life sciences (Piscataway, N.J.).
The kinase reaction was conducted in polystyrene 384-well matrix white plate from Thermo Fisher Scientific in a final volume of 25 μL. Inhibitors were first diluted serially in DMSO and added to the plate wells before the addition of other reaction components. The final concentration of DMSO in the assay was 0.5%. The PI3K assays were carried out at room temperature in 20 mM MOPS, pH 6.7, 10 mM MgCl2, 5 mM DTT and CHAPS 0.03%. Reactions were initiated by the addition of ATP, the final reaction mixture consisted of 20 μM PIP2, 20 μM ATP, 0.2 μCi [γ-^33P] ATP, 4 nM PI3Kδ. […] 25 mM EDTA, 400 μM ATP. The final concentration of SPA beads was 1.0 mg/mL. After the plate sealing, plates were shaken overnight at room temperature and centrifuged at 1800 rpm for 10 minutes, the radioactivity of the product was determined by scintillation counting on Topcount (Perkin-Elmer). IC50 determination was performed by fitting the curve of percent control activity versus the log of the inhibitor concentration using the GraphPad Prism 3.0 software.

PI3Kδ (p110δ/p85α), sequence (O00329 whole entry): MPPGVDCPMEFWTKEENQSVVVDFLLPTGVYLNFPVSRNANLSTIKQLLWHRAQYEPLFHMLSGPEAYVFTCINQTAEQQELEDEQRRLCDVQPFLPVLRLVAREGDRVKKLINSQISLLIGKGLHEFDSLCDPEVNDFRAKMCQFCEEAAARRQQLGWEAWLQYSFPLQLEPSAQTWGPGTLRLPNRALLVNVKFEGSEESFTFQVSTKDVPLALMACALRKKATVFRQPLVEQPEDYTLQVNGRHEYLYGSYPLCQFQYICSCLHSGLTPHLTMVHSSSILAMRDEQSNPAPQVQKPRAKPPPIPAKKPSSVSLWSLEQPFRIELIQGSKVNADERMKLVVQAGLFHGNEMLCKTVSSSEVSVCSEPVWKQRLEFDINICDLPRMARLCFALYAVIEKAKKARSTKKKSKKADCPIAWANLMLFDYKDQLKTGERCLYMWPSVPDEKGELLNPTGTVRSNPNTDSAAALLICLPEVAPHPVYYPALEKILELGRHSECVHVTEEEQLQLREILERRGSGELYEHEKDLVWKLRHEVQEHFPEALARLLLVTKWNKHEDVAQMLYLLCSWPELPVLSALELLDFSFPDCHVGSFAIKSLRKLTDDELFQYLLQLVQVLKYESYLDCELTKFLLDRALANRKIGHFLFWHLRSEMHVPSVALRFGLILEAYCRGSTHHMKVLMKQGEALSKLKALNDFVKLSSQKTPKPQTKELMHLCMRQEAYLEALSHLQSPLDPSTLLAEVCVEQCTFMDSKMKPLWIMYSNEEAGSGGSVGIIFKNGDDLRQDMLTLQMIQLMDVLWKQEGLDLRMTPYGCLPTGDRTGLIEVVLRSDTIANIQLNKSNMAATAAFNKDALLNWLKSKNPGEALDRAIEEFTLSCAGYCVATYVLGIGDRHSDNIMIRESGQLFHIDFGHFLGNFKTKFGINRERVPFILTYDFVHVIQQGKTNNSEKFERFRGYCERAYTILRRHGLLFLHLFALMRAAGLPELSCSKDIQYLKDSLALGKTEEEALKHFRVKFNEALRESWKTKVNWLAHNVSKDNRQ
PI3Kδ (p110δ/p85α), sequence (P27986 whole entry partner): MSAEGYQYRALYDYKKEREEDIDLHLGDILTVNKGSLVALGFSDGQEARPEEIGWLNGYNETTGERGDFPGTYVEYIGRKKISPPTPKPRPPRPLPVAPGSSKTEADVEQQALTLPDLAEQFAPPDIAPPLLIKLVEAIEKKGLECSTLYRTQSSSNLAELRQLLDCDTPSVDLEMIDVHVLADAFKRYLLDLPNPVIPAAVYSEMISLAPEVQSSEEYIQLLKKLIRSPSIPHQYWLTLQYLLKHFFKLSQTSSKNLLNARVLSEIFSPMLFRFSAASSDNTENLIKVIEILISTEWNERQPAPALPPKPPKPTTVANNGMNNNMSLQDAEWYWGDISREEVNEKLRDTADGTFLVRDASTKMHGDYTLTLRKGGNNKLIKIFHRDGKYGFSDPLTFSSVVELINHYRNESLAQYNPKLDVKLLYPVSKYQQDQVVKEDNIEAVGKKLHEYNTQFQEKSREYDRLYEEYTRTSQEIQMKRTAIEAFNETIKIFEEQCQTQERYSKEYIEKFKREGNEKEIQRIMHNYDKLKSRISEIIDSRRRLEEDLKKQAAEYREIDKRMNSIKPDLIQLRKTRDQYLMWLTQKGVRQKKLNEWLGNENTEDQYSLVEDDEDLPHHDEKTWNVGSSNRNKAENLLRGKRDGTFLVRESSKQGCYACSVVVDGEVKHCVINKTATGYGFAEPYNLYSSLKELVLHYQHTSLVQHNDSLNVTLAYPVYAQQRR

Question: With `COc1c(C(C)n2nc(C(F)F)c3c(N)ncnc32)cc(Cl)c(F)c1C1CN(C(C)C)C1` (centres unmarked) [Example 73, 1-{1-[5-Chloro-4-fluoro-3-(1-isopropylazetidin-3-yl)-2-methoxyphenyl]ethyl}-3-(difluoromethyl)-1H-pyrazolo[3,4-d]pyrimidin-4-amine] as the molecule, how does the pIC50 read?
Answer: > 8.00

Question: `COc1c(C(C)n2nc(C)c3c(N)ncnc32)cc(Cl)c(C)c1C1CN([C@H](C)CO)C1` (stereo partly drawn) [Example 156, (2R)-2-(3-{3-[1-(4-Amino-3-methyl-1H-pyrazolo[3,4-d]pyrimidin-1-yl)ethyl]-5-chloro-2-methoxy-6-methylphenyl}azetidin-1-yl)propan-1-ol] was tested. Which pIC50 did it give?
Answer: > 8.00

Question: How did the pIC50 turn out when `COc1c(C(C)n2nc(C(F)F)c3c(N)ncnc32)cc(C#N)c(C)c1C1CN(CC(F)(F)F)C1` (racemic) [Example 129, 5-{1-[4-Amino-3-(difluoromethyl)-1H-pyrazolo[3,4-d]pyrimidin-1-yl]ethyl}-4-methoxy-2-methyl-3-[1-(2,2,2-trifluoroethyl)azetidin-3-yl]benzonitrile] was run?
Answer: > 8.00

Question: How did the pIC50 turn out when `COc1c(C(C)n2nc(C(F)F)c3c(N)ncnc32)cc(C#N)c(C)c1C1CN(C[C@@H](C)O)C1` (stereo partly drawn) [Example 132, 5-{1-[4-Amino-3-(difluoromethyl)-1H-pyrazolo[3,4-d]pyrimidin-1-yl]ethyl}-3-{1-[(2R)-2-hydroxypropyl]azetidin-3-yl}-4-methoxy-2-methylbenzonitrile] was run?
Answer: > 8.00

Question: With `CCOc1c(C(C)n2nc(C)c3c(N)ncnc32)cc(Cl)c(C#N)c1N1CCCC1` (racemic) [Example 318, 4-[1-(4-amino-3-methyl-1H-pyrazolo[3,4-d]pyrimidin-1-yl)ethyl]-6-chloro-3-ethoxy-2-pyrrolidin-1-ylbenzonitrile] as the molecule, how does the pIC50 read?
Answer: > 8.00

Question: How did the pIC50 turn out when `COc1c(C(C)n2nc(C(F)F)c3c(N)ncnc32)cc(C#N)c(C)c1C1CN(C(C)C)C1` (racemic) [Example 128, 5-{1-[4-amino-3-(difluoromethyl)-1H-pyrazolo[3,4-d]pyrimidin-1-yl]ethyl}-3-(1-isopropylazetidin-3-yl)-4-methoxy-2-methylbenzonitrile] was run?
Answer: > 8.00

Question: `CNC(=O)c1cc(-c2c(C)c(Cl)cc(C(C)n3nc(C)c4c(N)ncnc43)c2OC)ccn1` (racemic) [Example 17, 4-(3-(1-(4-amino-3-methyl-1H-pyrazolo[3,4-d]pyrimidin-1-yl)ethyl)-5-chloro-2-methoxy-6-methylphenyl)-N-methylpicolinamide] was tested. Which pIC50 did it give?
Answer: > 8.00

Question: How did the pIC50 turn out when `CCOc1c(C(C)n2nc(C)c3c(N)ncnc32)cc(Cl)c(C#N)c1-c1cncc(-c2ncco2)c1` (racemic) [Example 339, 4-[1-(4-amino-3-methyl-1H-pyrazolo[3,4-d]pyrimidin-1-yl)ethyl]-6-chloro-3-ethoxy-2-[5-(1,3-oxazol-2-yl)pyridin-3-yl]benzonitrile] was run?
Answer: > 8.00

Question: `COc1c(C(C)n2nc(C)c3c(N)ncnc32)cc(Cl)c(C#N)c1C1CN(C(C)CO)C1` (single isomer, unassigned) [Example 273, 4-[1-(4-amino-3-methyl-1H-pyrazolo[3,4-d]pyrimidin-1-yl)ethyl]-6-chloro-2-[1-(2-hydroxy-1-methylethyl)azetidin-3-yl]-3-methoxybenzonitrile] was tested. Which pIC50 did it give?
Answer: > 8.00

Question: With `CCOc1c(C(C)n2nc(-c3cnn(CCO)c3)c3c(N)ncnc32)cc(Cl)c(C)c1-c1ccc(C(=O)N(C)C)nc1` (centres unmarked) [Example 52, 5-[3-(1-{4-amino-3-[1-(2-hydroxyethyl)-1H-pyrazol-4-yl]-1H-pyrazolo[3,4-d]pyrimidin-1-yl}ethyl)-5-chloro-2-ethoxy-6-methylphenyl]-N,N-dimethylpyridine-2-carboxamide bis(trifluoroacetate)] as the molecule, how does the pIC50 read?
Answer: > 8.00

Question: How did the pIC50 turn out when `CCOc1c(C(C)n2nc(C)c3c(N)ncnc32)cc(Cl)c(C#N)c1-c1ccc(-c2nnc(C)o2)nc1` (racemic) [Example 338, 4-[1-(4-amino-3-methyl-1H-pyrazolo[3,4-d]pyrimidin-1-yl)ethyl]-6-chloro-3-ethoxy-2-[6-(5-methyl-1,3,4-oxadiazol-2-yl)pyridin-3-yl]benzonitrile] was run?
Answer: > 8.00

Question: With `COc1c(C(C)n2nc(C)c3c(N)ncnc32)cc(Cl)c(C)c1-c1ccnc(C(=O)N(C)C)c1` (centres unmarked) [Example 16, 4-{3-[1-(4-Amino-3-methyl-1H-pyrazolo[3,4-d]pyrimidin-1-yl)ethyl]-5-chloro-2-methoxy-6-methylphenyl}-N,N-dimethylpyridine-2-carboxamide] as the molecule, how does the pIC50 read?
Answer: > 8.00

Question: How did the pIC50 turn out when `COc1c(C(C)n2nc(C)c3c(N)ncnc32)cc(Cl)c(C#N)c1C1CN(CC2CCOC2)C1` (single isomer, unassigned) [Example 279, 4-[1-(4-Amino-3-methyl-1H-pyrazolo[3,4-d]pyrimidin-1-yl)ethyl]-6-chloro-3-methoxy-2-[1-(tetrahydrofuran-3-ylmethyl)azetidin-3-yl]benzonitrile] was run?
Answer: > 8.00

Question: `CCOc1c(C(C)n2nc(C)c3c(N)ncnc32)cc(Cl)c(C#N)c1C1CN(C(C)(C)CO)C1` (single isomer, unassigned) [Example 237, 4-[1-(4-Amino-3-methyl-1H-pyrazolo[3,4-d]pyrimidin-1-yl)ethyl]-6-chloro-3-ethoxy-2-[1-(2-hydroxy-1,1-dimethylethyl)azetidin-3-yl]benzonitrile] was tested. Which pIC50 did it give?
Answer: > 8.00

Question: `CCNC(=O)c1c(C)c(Cl)cc(C(C)n2nc(-c3cc(O)cc(F)c3)c3c(N)ncnc32)c1OCC` (racemic) [Example 88, 3-{1-[4-Amino-3-(3-fluoro-5-hydroxyphenyl)-1H-pyrazolo[3,4-d]pyrimidin-1-yl]ethyl}-5-chloro-2-ethoxy-N-ethyl-6-methylbenzamide] was tested. Which pIC50 did it give?
Answer: > 8.00

Question: How did the pIC50 turn out when `COc1c(C(C)n2nc(C)c3c(N)ncnc32)cc(Cl)c(C)c1C1CN(C[C@@H](O)C(F)(F)F)C1` (single isomer, unassigned) [Example 115] was run?
Answer: > 8.00

Question: How did the pIC50 turn out when `CCOc1c(C(C)n2cc(C)c3c(N)ncnc32)cc(Cl)c(C#N)c1C1CN(C[C@H](C)O)C1` (stereo partly drawn) [Example 309, 4-[1-(4-Amino-5-methyl-7H-pyrrolo[2,3-d]pyrimidin-7-yl)ethyl]-6-chloro-3-ethoxy-2-{1-[(2S)-2-hydroxypropyl]azetidin-3-yl}benzonitrile] was run?
Answer: > 8.00

Question: How did the pIC50 turn out when `CNC(=O)[C@@H](C)N1CC(c2c(C)c(Cl)cc(C(C)n3nc(C)c4c(N)ncnc43)c2OC)C1` (stereo partly drawn) [Example 110, (2R)-2-(3-{3-[1-(4-Amino-3-methyl-1H-pyrazolo[3,4-d]pyrimidin-1-yl)ethyl]-5-chloro-2-methoxy-6-methylphenyl}azetidin-1-yl)-N-methylpropanamide trifluoroacetate] was run?
Answer: > 8.00

Question: With `CCC(C)N1CC(c2c(C)c(Cl)cc(C(C)n3nc(C)c4c(N)ncnc43)c2OC)C1` (centres unmarked) [Example 8, 1-{1-[3-(1-sec-butylazetidin-3-yl)-5-chloro-2-methoxy-4-methylphenyl]ethyl}-3-methyl-1H-pyrazolo[3,4-d]pyrimidin-4-amine] as the molecule, how does the pIC50 read?
Answer: > 8.00

Question: With `COc1c(C(C)n2nc(C)c3c(N)ncnc32)cc(Cl)c(C)c1-c1ccnc(C(=O)NCCO)c1` (racemic) [Example 18, 4-{3-[1-(4-Amino-3-methyl-1H-pyrazolo[3,4-d]pyrimidin-1-yl)ethyl]-5-chloro-2-methoxy-6-methylphenyl}-N-(2-hydroxyethyl)pyridine-2-carboxamide] as the molecule, how does the pIC50 read?
Answer: > 8.00

Question: `CCOc1c(C(C)n2cc(C)c3c(N)ncnc32)cc(Cl)c(C#N)c1C1CN(CCO)C1` (centres unmarked) [Example 308, 4-[1-(4-Amino-5-methyl-7H-pyrrolo[2,3-d]pyrimidin-7-yl)ethyl]-6-chloro-3-ethoxy-2-[1-(2-hydroxyethyl)azetidin-3-yl]benzonitrile] was tested. Which pIC50 did it give?
Answer: > 8.00

Question: With `CCOc1c(C(C)n2nc(C)c3c(N)ncnc32)cc(Cl)c(C#N)c1N1CC(C#N)C1` (racemic) [Example 342, 1-{3-[1-(4-amino-3-methyl-1H-pyrazolo[3,4-d]pyrimidin-1-yl)ethyl]-5-chloro-6-cyano-2-ethoxyphenyl}azetidine-3-carbonitrile] as the molecule, how does the pIC50 read?
Answer: > 8.00

Question: `CCOc1c(C(C)n2nc(C)c3c(N)ncnc32)cc(Cl)c(C)c1-c1cnn(C)c1` (single isomer, unassigned) [Example 197, 1-(1-(5-chloro-2-ethoxy-4-methyl-3-(1-methyl-1H-pyrazol-4-yl)phenyl)ethyl)-3-methyl-1H-pyrazolo[3,4-d]pyrimidin-4-amine] was tested. Which pIC50 did it give?
Answer: > 8.00

Question: With `CCOc1c(C(C)n2nc(C)c3c(N)ncnc32)cc(Cl)c(F)c1C1CN(CC(F)(F)F)C1` (racemic) [Example 141, 1-(1-{5-Chloro-2-ethoxy-4-fluoro-3-[1-(2,2,2-trifluoroethyl)azetidin-3-yl]phenyl}ethyl)-3-methyl-1H-pyrazolo[3,4-d]pyrimidin-4-amine] as the molecule, how does the pIC50 read?
Answer: > 8.00

Question: How did the pIC50 turn out when `COc1c(C(C)n2nc(C)c3c(N)ncnc32)cc(Cl)c(C)c1C1CN(CC(C)(C)O)C1` (centres unmarked) [Example 158, 1-(3-{3-[1-(4-Amino-3-methyl-1H-pyrazolo[3,4-d]pyrimidin-1-yl)ethyl]-5-chloro-2-methoxy-6-methylphenyl}azetidin-1-yl)-2-methylpropan-2-ol] was run?
Answer: > 8.00

Question: `COc1c(C(C)n2nc(C)c3c(N)ncnc32)cc(Cl)c(C)c1C1CN(C(=O)c2cnn(C)c2)C1` (single isomer, unassigned) [Example 117, 1-[1-(5-Chloro-2-methoxy-4-methyl-3-{1-[(1-methyl-1H-pyrazol-4-yl)carbonyl]azetidin-3-yl}phenyl)ethyl]-3-methyl-1H-pyrazolo[3,4-d]pyrimidin-4-amine] was tested. Which pIC50 did it give?
Answer: > 8.00

From patent US10092570B2 (Incyte Corporation, priority 2011, dated 2018)
